# Measurements: patent US7176217B2, “Azabicyclo compound matrix metalloprotease inhibitor and skin preparation” (Shiseido Co., Ltd., priority 2001, dated 2007)
# Target: T1, MMP-9 (crude enzyme solution derived from a mouse skin) (Mus musculus, UniProt P41245)
# T1 construct: crude enzyme solution derived from a mouse skin; from tissue; host or cells: mouse skin
# Assay: Gelatinase group MMPs inhibition test (gelatin zymography)
# Format: biochemical
# Set-up: key: ⊚: The band disappeared.; ◯: The band was slightly confirmed.; Δ: The band became narrower than control.; X: Unchanged
# Settings: sample solution 100 μM; gel incubated overnight; size of MMP-9 band compared with control solution
# Description: A test material was dissolved in dimethyl sulfoxide (DMSO) to the concentration of 10 mM, to prepare a stock solution. The stock solution was diluted with a measuring buffer (0.05M tris at pH 7.5 containing 0.2M NaCl and 5 mM CaCl2) to adjust the concentration to 100 μM, which was used as a sample solution. As a control solution, a solution containing no test material was similarly prepared.
# As a gelatinase group enzyme, MMP-9 (crude enzyme solution derived from a mouse skin) was used. The test was performed according to a gelatin zymography method (“Bio-antioxidant provitamin C”, Nobuhiko Miwa ed., p. 76, 1999, Fragrance Journal, Tokyo).
# That is, a gel containing gelatin in which a predetermined amount of the crude enzyme solution had been subjected to electrophoresis in advance, was incubated overnight with a sample solution or a control solution. After the gel was stained, the appearing band corresponding to MMP-9 was evaluated by a decrease when its size compared with that of a band of control solution. Evaluation criteria was as follows: • ⊚: The band disappeared. • ◯: The band was slightly confirmed. • Δ: The band became narrower than control. • X: Unchanged.
# T1 sequence (P41245 108-730): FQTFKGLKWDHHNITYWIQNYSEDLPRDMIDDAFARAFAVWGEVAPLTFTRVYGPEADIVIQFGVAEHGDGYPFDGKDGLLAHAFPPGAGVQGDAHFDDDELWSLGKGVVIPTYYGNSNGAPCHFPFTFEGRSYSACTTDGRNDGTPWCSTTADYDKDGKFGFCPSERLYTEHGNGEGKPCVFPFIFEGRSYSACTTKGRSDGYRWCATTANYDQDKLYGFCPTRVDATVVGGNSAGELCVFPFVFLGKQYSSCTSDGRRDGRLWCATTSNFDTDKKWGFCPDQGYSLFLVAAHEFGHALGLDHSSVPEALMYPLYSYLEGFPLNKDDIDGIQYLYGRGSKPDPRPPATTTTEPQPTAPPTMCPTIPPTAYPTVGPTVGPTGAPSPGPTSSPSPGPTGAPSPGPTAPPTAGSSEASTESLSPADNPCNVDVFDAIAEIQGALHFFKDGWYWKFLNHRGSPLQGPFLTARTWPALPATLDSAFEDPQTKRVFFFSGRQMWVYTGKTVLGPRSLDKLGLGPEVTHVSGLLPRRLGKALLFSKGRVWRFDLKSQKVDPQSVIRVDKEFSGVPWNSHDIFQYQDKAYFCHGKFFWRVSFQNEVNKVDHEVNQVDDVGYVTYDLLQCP
row,Compound,MMPs Inhibition
1,"COc1ccc(S(=O)(=O)N2C3CCC(C3)C2C(=O)NO)cc1 (centres unmarked) [Compound 1, N-Hydroxy-2-[(4-methoxyphenyl)sulfonyl]-2-azabicyclo[2.2.1]heptane-3-carboxamide]",◯~⊚
2,"COc1ccc(S(=O)(=O)N2[C@H]3CC[C@H](C3)[C@@H]2C(=O)NO)cc1 [Compound 3, (1S, 3R, 4R)—N-Hydroxy-2-[(4-methoxyphenyl)sulfonyl]-2-azabicyclo[2.2.1]heptane-3-carboxamide]",◯~⊚
3,"COc1ccc(S(=O)(=O)N2C3CCC(CC3)[C@@H]2C(=O)NO)cc1 [Compound 7, (3R)—N-Hydroxy-2-[(4-methoxyphenyl)sulfonyl]-2-azabicyclo[2.2.2]octane-3-carboxamide]",◯~⊚
4,"O=C(NO)[C@H]1[C@@H]2CC[C@@H](C2)N1S(=O)(=O)c1ccccc1 [Compound 8, (1S, 3R, 4R)—N-Hydroxy-2-(phenylsulfonyl)-2-azabicyclo[2.2.1]heptane-3-carboxamide]",◯
5,"O=C(NO)[C@H]1[C@@H]2CC[C@@H](C2)N1S(=O)(=O)c1ccc(Cl)cc1 [Compound 9, (1S, 3R, 4R)-2-[(4-Chlorophenyl)sulfonyl]-N-hydroxy-2-azabicyclo[2.2.1]heptane-3-carboxamide]",◯
6,"CCCCOc1ccc(S(=O)(=O)N2[C@H]3CCC(C3)[C@@H]2C(=O)NO)cc1 [Compound 12, (1S, 3R, 4R)-2-[4-(Butoxyphenyl)sulfonyl]-N-hydroxy-2-azabicyclo[2.2.1]heptane-3-carboxamide]",⊚
7,"O=C(NO)[C@H]1[C@@H]2CC[C@@H](C2)N1S(=O)(=O)c1ccc(F)cc1 [Compound 13, (1S, 3R, 4R)-2-[(4-Fluorophenyl)sulfonyl]-N-hydroxy-2-azabicyclo[2.2.1]heptane-3-carboxamide]",◯
8,"COc1ccc(S(=O)(=O)N2[C@@H]3CC(C(C)(C)C)[C@H](C3)[C@@H]2C(=O)NO)cc1 (stereo partly drawn) [Compound 14, 5-(tert-Butyl)-(1R, 3R, 4S)—N-hydroxy-2-[(4-methoxyphenyl)sulfonyl]-2-azabicyclo[2.2.1]heptane-3-carboxamide]",◯
